Laboratory results as given in patent publication US20100184113A1, “CONTROLLING OSTEOGENESIS BY INHIBITION OF OSTEOGENIC SUPPRESSORS” (The Scripps Research Institute Office of Patent Counsel, priority 2006, published 2010).

Experiments:
Format in all cases: cell-based, human
hMSCs [1] = assay: Alkaline phosphatase (ALP) activity staining of hMSCs after siRNA transfection
Description: The human mesenchymal stem cells (hMSCs, PT-2501) were purchased from Cambrex Inc. and cultured as instructed by the supplier. Cells were expanded to passage 5 before being used for siRNA library screen. Briefly, diluted Xtreme-siRNA transfection reagent (cat# 476 115 00, Roche) (0.12 μl Xtreme in 14 μl DMEM) was mixed with pre-spotted siRNA (14 ng/well) in each well of 384-well plates for one hour. Cells (4000/well) in 60 μl media (no antibiotics) were then added using automated dispenser (Multidrop 384, Thermo LabSystems) (siRNA final concentration at around 15 nM). Transfection was allowed to continue for 8 hours before first media renewal. After 7 days of culture, cells were stained for alkaline phosphatase (ALP) activity (cat# 86R-1 KT, Sigma). Post-screen assays were done in 96-well plates and siRNA was transfected at the concentration of 30 nM at the cell density of 8000 cells/well. CRE decoy oligonucleotide and control oligonucleotide (phosphorothioate bond modification on all nucleotides) (Park, Y. G. et al., J Biol Chem 274:1573-1580 (1999)) were transfected into cells similarly as siRNA using Xtreme-siRNA transfection reagent, except that the final DNA concentration was 90 nM. […]

hMSCs [2] = assay: Adipogenic differentiation of hMSCs, Oil Red O staining; conditions: Adipo from third day after siRNA transfection, continued 12 days, Oil Red O
Description: Cells were rinsed with PBS twice, fixed in 10% formalin solution for 20 minutes, rinsed with PBS twice and dH2O once, washed with propylene glycol for 5 minutes, and stained with Oil red in propylene glycol (12722A, Newcomer Supply) for 30 minutes. Cells were then washed with 85% propylene glycol for 5 minutes, rinsed with dH2O 3 times and preserved in 50% glycerol.
8-CPT-cAMP, Na (cat# 116812), 5-Iodotubercidin (cat# 407900), Prostaglandin E2 (PGE2, cat# 538904), SB 202190 (cat# 559388) and U0126 (cat# 662005) were purchased from Calbiochem; N6,2′-O-Dibutyryl-cAMP (cat# D0260-5MG), forskolin (cat# F6886), ascorbic acid 2-phosphate (cat# 49752-10G), (3-glycerophosphate (G-6251), dexamethasone (D8893), 3-isobutyl-1-methylxanthine (IBMX, 15879) and Insulin (19278) were purchased from Sigma/Aldrich/Fluka.
Bone cell maturation is accompanied by extracellular matrix (ECM) mineralization (John Bilezikian et al., Principles of bone biology, Vol 1, 2nd edn: Academic Press) (2002)). To examine whether the osteogenic differentiation of hMSCs induced by the hit siRNAs can further proceed to the maturation stage, hit siRNA treated cells were cultured for 20 days. […] These observations are consistent with the conclusion that the targeted genes of the ten effective hit siRNAs not only play inhibitory roles in osteogenic specification of hMSCs, but also in bone cell maturation. […] Furthermore, in osteoporotic patients, the number of adipocytes was increased in the marrow, implying a change of cell fate disposition from osteoblast lineage to adipocyte lineage (Justesen, J. et al., Biogerontology 2:165-171 (2001); Meunier, P. et al., Clin Orthop Relat Res 80:147-154 (1971)). We therefore examined the effect of our hit siRNAs on adipogenic differentiation of hMSCs by combined treatment with an adipogenic inducing cocktail (100 μg/ml BMX, 1 μM DEX and 10 μg/ml insulin).
Since the targeted genes are all positively involved in intracellular cAMP signaling, we tested the effect of two compounds of opposing function on cAMP production on osteogenic differentiation of hMSCs, ADK inhibitor 5-iodotubercidin and ADCY activator forskolin (Cottam, H. B. et al., J Med Chem 36:3424-3430 (1993); de Souza, N. J. et al., Med Res Rev 3:201-219 (1983)). […] ATP has been shown as a ligand for P2RY11 receptor (Communi et al., 1997). […] The present observations are consistent with the conclusion that […] in hMSCs, and vice versa.

p38 = assay: Western blot of phosphorylated p38; conditions: 72 hours after transfection
Description: Cell lyses buffer contains 20 mM Tris pH8.0, 1 mM EDTA, 150 mM NaCl and 0.5% NP-40, and before usage, protease inhibitor cocktail (Cat# p8340, Sigma, 1:100 dilution) and phosphatase inhibitor cocktail 2 (Cat# p5726, sigma, 1:100 dilution) were added. Proteins (60 μg/well) were separated in 12% Novex Tris-Glycine gel (Cat# EC6008 box, Invitrogen) and transferred to Nitrocellulose membrane (Cat# LC2001, Invitrogen) using the XCell II blot module system (Cat# E19051, Invitrogen). The membrane was blocked in 5% milk/PBST for 1 hour at room temperature, incubated over night at 4 degree with primary antibody, washed 3 times with PBST (0.05% Tween 20 in PBS), followed by one hour incubation with secondary antibody in 5% milk/PBST and 3 times wash with PBST at room temperature. For antibody against pCREB however, PBST was substituted with PBS in all steps except for the last one. Antibody-bound proteins were detected utilizing ECL Western blotting detection reagent (Amersham Biosciences).
Anti-phospho-CREB was purchased from Upstate Biotechnology (cat# 06-519); Anti-phospho-p38 was purchased from Cell signaling technology (cat# 9910).
We therefore examined the activation status of ERK1/2 and p38 in the siDUSP6 treated hMSCs along with other siRNA treated samples by western blot using antibodies against the phosphorylated form of the protein at 72 hours after transfection (FIG. 9c).

hMSCs [3] = assay: Alizarin red staining for calcium phosphate deposits (ECM mineralization, bone cell maturation); conditions: OS treatment started three days after siRNA transfection and continued for 9 days (3+9OS), vs siCon
PLZF = assay: RT-PCR of PLZF; conditions: samples collected day 7 or day 12 after siRNA transfection
Description: Total RNA from each sample was prepared from around 5×10(4) cells using RNAeasy mini kit from Qiagen and further treated with Turbo DNA-Free (cat# 1907, Ambion) to prevent DNA contamination. Reverse transcription was carried out using SuperScript First-Strand Synthesis System for RT-PCR (cat# 11904-018, Invitrogen) or Qiagen OneStep RT-PCR kit (cat# 210210) as instructed. PCR primers used were as follows: […]
To test their roles in our siRNA induced osteogenic differentiation, RT-PCR was performed on these genes. […] In addition, MAPK signaling pathways have been shown activated in the OS treated hMSCs, and inhibition of these pathways suppresses OS induced osteogenesis (FIG. 9b) (Jaiswal, R. K. et al., J Biol Chem 275:9645-9652 (2000)).

## CBFA1 siRNA: CBFA1-specific siRNA, antisense UAGUAGAGAUAUGGAGUGCtg, sense GCACUCCAUAUCUCUACUAtt (chain 1 UAGUAGAGAUAUGGAGUGCTG; chain 2 GCACUCCAUAUCUCUACUATT; chemistry not given here) [reference compound]
hMSCs [1]; co-transfected with each hit siRNA, vs co-treatment with siCon
  ALP activity induced by hit siRNAs or OS on co-treatment: reduced the level of ALP activity

## siCOMP: siRNA CGGUCACGGAUGACGACUA targeting cartilage oligomeric matrix protein (listed as RNA, further chemistry not given here)
hMSCs [2]
  adipogenesis induced by adipogenic inducing media (Adipo): enhances adipogenesis
hMSCs [1]; 9 days after siRNA transfection
  osteogenic differentiation (ALP activity): induces osteogenic differentiation of hMSCs

## siDUSP6: siRNA CUGUGGUGUCUUGGUACAU targeting dual specificity phosphatase 6 (listed as RNA, chemistry not given here)
p38
  level of active (phosphorylated) p38: increased level of active p38
hMSCs [3]
  intensity of alizarin red staining: modest enhancement

## siMJD: siRNA CAGAUGCAUCGACCAAAAC targeting Machado-Joseph disease (ataxin 3) (listed as RNA, chemistry not given here)
PLZF
  expression of PLZF: detected
hMSCs [3]
  intensity of alizarin red staining: no significant effect
